According to patent publication US7550589B2, “6-(2-alkyl-phenyl)-pyrido[2,3-D]pyrimidines useful as protein kinase inhibitors” (Hoffman-La Roche Inc., priority 2004, dated 2009):

Legend:
Src (p60^c-src) = biological target: T1, Src (p60^c-src) (Homo sapiens, UniProt P12931); test: SRC-Inhibitor-Assay, time-resolved fluorescence kinase assay (Src); type: biochemical; conditions: ATP 5 μM; peptide 10 μM; enzyme 2.5 U/ml; pre-incubated 15 min at 15° C.
T1 construct: purchased UBI, Upstate Biotech, Inc
T1 sequence (P12931 whole entry): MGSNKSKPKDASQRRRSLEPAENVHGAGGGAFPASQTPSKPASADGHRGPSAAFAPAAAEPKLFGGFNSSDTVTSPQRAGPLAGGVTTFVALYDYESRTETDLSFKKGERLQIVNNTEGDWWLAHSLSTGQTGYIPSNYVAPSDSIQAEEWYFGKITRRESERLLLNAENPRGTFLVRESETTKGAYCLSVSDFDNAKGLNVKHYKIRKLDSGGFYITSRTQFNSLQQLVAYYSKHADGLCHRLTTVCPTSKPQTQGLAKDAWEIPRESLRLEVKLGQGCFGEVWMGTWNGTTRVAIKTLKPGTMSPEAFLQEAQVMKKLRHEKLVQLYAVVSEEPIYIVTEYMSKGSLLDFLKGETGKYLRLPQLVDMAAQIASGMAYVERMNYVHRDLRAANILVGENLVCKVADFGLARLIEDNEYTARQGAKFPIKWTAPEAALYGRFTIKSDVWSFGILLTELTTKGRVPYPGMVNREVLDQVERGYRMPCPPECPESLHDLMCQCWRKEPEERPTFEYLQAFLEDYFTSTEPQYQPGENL
Excerpt: (§1) The activity of the compounds according to this invention as inhibitors for the src-family tyrosine kinases was shown by using the following assay.
(§2) SRC-Inhibitor-Assay Parameters:
(§3) Eu-labelled Phosphotyrosine Antibody: for Lck Cisbio Mab PT66-K, • for Src EG&G Wallac PT66 Eu-W1024 (all commercially available).
(§4) Peptides: Ro: NH2-A-E-E-E-I-Y-G-E-F-E-A-K-K-K-K-CONH2, and • Ja133-Ro: Ja133-G-Aminocaprylic acid-A-E-E-E-I-Y-G-E-F-E-A-K-K-K-K-CONH2, wherein Ja133 is LightCycler-Red 640-N-hydroxy succinimide ester; • whereby both peptides were synthesized by an optimized solid phase peptide synthesis protocol (Merrifield, Fed. Proc. Fed. Amer. Soc. Exp. Biol. 21 (1962) 412) on a Zinsser SMP350 peptide synthesizer. Shortly, the peptide was assembled on 160 mg (22.8 μmol scale) of a Rink-Linker modified polystyrene solid phase by repeatedly conjugating an twenty fold excess of amino acids each protected by temporary piperidine labile Fmoc- and permanent acid labile tert-Bu—, BOC- and O-tert-Bu-groups depending on the side chain function. The substrate sequence AEEEIYGEFEAKKKK was N-terminal additionally mounted with the spacer amino acids Aminocaprylic acid and Glycin. After cleavage of the N-terminal temporary protecting group the still attached and protected peptide was labeled with a 1.5 fold amount of LightCycler-Red 640-N-hydroxy succinimide ester (purchased from Roche Diagnostics GmbH) and triethylamine. After 3 hrs. the resin was washed with Dimethylformamide and Isopropanol until the eluates of the blue resin got colourless. […] The substrate was finally isolated by a preparative reverse phase HPLC purification. The purification yielded 12.2 mg RP-HPLC single peak pure blue material (lyophilisate). The identity was proven by MALDI mass spectroscopy [2720.0].
(§5) Enzymes: Upstate Lck (p56^lck, active), Upstate Src (p60^c-src, partially purified) were purchased from UBI, Upstate Biotech, Inc.
(§6) Time-resolved Fluorescence Assay: Reader: Perkin Elmer, Wallac Viktor 1420-040 multilabel counter; Liquid handling system: Beckman Coulter, Biomek 2000.
(§7) ATP, Tween™ 20, 4-(2-hydroxyethyl)-1-piperazineethanesulfonic acid (HEPES) were purchased from Roche Molecular Biochemicals, MgCl2 and MnCl2 were purchased from Merck Eurolab, Tris(2-carboxyethyl)phosphine hydrochloride (TCEP) was purchased from Pierce, 384 Well low volume fluorescence plates was purchased from Falcon.
(§8) At first the enzyme is pre-incubated for 15 min. at 15° C. in aqueous solution with corresponding amounts of inhibitors according to this invention. Then the phosphorylation reaction is started by adding a reaction mixture, containing ATP, Peptide and PT66, and subsequent shaking. The proceeding of this reaction is immediately monitored using time resolved fluorescence spectroscopy in a suitable well plate reader.
(§9) The IC50-values can be obtained from the reaction rates by using a non-linear curve fit (XLfit software (ID Business Solution Ltd., Guilford, Surrey, UK))

Lck (p56^lck) = biological target: T2, Lck (p56^lck) (Homo sapiens, UniProt P06239); test: SRC-Inhibitor-Assay, time-resolved fluorescence kinase assay (Lck); type: biochemical; conditions: ATP 5 μM; peptide 10 μM; enzyme 2.5 U/ml; pre-incubated 15 min at 15° C.
T2 construct: purchased UBI, Upstate Biotech, Inc
T2 sequence (P06239 whole entry, species assumed): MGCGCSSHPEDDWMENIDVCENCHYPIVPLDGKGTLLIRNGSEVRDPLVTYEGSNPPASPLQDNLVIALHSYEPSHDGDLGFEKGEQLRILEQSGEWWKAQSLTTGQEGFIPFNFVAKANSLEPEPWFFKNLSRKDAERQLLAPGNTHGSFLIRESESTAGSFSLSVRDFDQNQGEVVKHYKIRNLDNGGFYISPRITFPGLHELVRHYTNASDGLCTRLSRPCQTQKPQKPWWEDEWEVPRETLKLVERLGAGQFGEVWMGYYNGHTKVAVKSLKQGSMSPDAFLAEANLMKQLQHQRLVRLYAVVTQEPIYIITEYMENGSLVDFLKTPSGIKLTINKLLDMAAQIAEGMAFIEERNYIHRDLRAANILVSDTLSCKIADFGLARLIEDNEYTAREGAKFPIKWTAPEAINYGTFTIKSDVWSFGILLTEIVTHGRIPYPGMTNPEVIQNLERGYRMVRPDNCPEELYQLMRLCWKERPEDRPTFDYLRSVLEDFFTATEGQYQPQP
Excerpt: as §1, §2, §3, §4, §5, §6, §7, §8, §9

SMILES	IC50 (Src (p60^c-src)) [nM]	IC50 (Lck (p56^lck)) [nM]
CS(=O)(=O)NCCNC(=O)c1nc2nc(Nc3ccc4c(c3)S(=O)(=O)CCO4)ncc2cc1-c1ccccc1C(F)(F)F [Example 2, 2-(4,4-Dioxo-3,4-dihydro-2H-4lambda*6*-benzo[1,4]oxathiin-6-ylamino)-6-(2-trifluoromethyl-phenyl)-pyrido[2,3-d]pyrimidine-7-carboxylic acid (2-methanesulfonylamino-ethyl)-amide]	5 to 50	20 to 50
Cc1ccccc1-c1cc2cnc(Nc3ccc(N4CCOCC4)cc3)nc2nc1C(=O)NC[C@H]1CCCN1 [Example 7, (R)-2-(4-Morpholin-4-yl-phenylamino)-6-o-tolyl-pyrido[2,3-d]pyrimidine-7-carboxylic acid (pyrrolidin-2-ylmethyl)-amide]	0.5 to 5	1 to 20
CNCCNC(=O)c1nc2nc(Nc3cccc(NC(C)=O)c3)ncc2cc1-c1ccccc1C [Example 8, 2-(3-Acetylamino-phenylamino)-6-o-tolyl-pyrido[2,3-d]pyrimidine-7-carboxylic acid (2-methylamino-ethyl)-amide]	0.5 to 5	1 to 20
CNCCNC(=O)c1nc2nc(Nc3cccc(NS(C)(=O)=O)c3)ncc2cc1-c1ccccc1C [Example 9, 2-(3-Methanesulfonylamino-phenylamino)-6-o-tolyl-pyrido[2,3-d]pyrimidine-7-carboxylic acid (2-methylamino-ethyl)-amide]	0.5 to 5	1 to 20
CS(=O)(=O)NCCNC(=O)c1nc2nc(Nc3ccc(N4CCOCC4)cc3)ncc2cc1-c1ccccc1C(F)(F)F [Example 11, 2-(4-Morpholin-4-yl-phenylamino)-6-(2-trifluoromethyl-phenyl)-pyrido[2,3-d]pyrimidine-7-carboxylic acid (2-methanesulfonylamino-ethyl)-amide]	0.5 to 5	1 to 20
O=C(NC[C@H]1CCCN1)c1nc2nc(Nc3ccc(N4CCOCC4)cc3)ncc2cc1-c1ccccc1C(F)(F)F [Example 14, (R)-2-(4-Morpholin-4-yl-phenylamino)-6-(2-trifluoromethyl-phenyl)-pyrido[2,3-d]pyrimidine-7-carboxylic acid (pyrrolidin-2-ylmethyl)-amide]	0.5 to 5	1 to 20
CC(=O)Nc1cccc(Nc2ncc3cc(-c4ccccc4C(F)(F)F)c(C(=O)NC[C@H]4CCCN4)nc3n2)c1 [Example 15, (R)-2-(3-Acetylamino-phenylamino)-6-(2-trifluoromethyl-phenyl)-pyrido[2,3-d]pyrimidine-7-carboxylic acid (pyrrolidin-2-ylmethyl)-amide]	0.5 to 5	1 to 20
O=C(NC[C@H]1CCCN1)c1nc2nc(Nc3ccc4c(c3)S(=O)(=O)CCO4)ncc2cc1-c1ccccc1C(F)(F)F [Example 17, (R)-2-(4,4-Dioxo-3,4-dihydro-2H-4lambda*6*-benzo[1,4]oxathiin-6-ylamino)-6-(2-trifluoromethyl-phenyl)-pyrido[2,3-d]pyrimidine-7-carboxylic acid (pyrrolidin-2-ylmethyl)-amide]	5 to 50	20 to 50

Now from value to molecule:

IC50 (Src (p60^c-src)) [nM]	IC50 (Lck (p56^lck)) [nM]	SMILES
0.7	8	CC(=O)Nc1cccc(Nc2ncc3cc(-c4ccccc4C)c(C(=O)NC[C@H]4CCCN4)nc3n2)c1 [Example 1, (R)-2-(3-Acetylamino-phenylamino)-6-o-tolyl-pyrido[2,3-d]pyrimidine-7-carboxylic acid (pyrrolidin-2-ylmethyl)-amide]
1	11.8	CC(=O)Nc1cccc(Nc2ncc3cc(-c4ccccc4C)c(C(=O)NCCNS(C)(=O)=O)nc3n2)c1 [Example 3, 2-(3-Acetylamino-phenylamino)-6-o-tolyl-pyrido[2,3-d]pyrimidine-7-carboxylic acid (2-methanesulfonylamino-ethyl)-amide]
0.5 to 5	1 to 20	Cc1ccccc1-c1cc2cnc(Nc3ccc(N4CCOCC4)cc3)nc2nc1C(=O)NCCNS(C)(=O)=O [Example 5, 2-(4-Morpholin-4-yl-phenylamino)-6-o-tolyl-pyrido[2,3-d]pyrimidine-7-carboxylic acid (2-methanesulfonylamino-ethyl)-amide]
